Measured values from publication PMC12587390, “Metabolite Identification Data in Drug Discovery, Part 1: Data Generation and Trend Analysis” (Molecular Pharmaceutics, 2025).
Values after ≈ are worked out from the molar mass of the structure shown.

Columns and labels:
human hepatocytes [1] = test: Metabolic stability in human hepatocytes (HH CLint); assay type: in vitro ADME; settings: 37 °C, 2 h
Method: Metabolic stability in human hepatocytes (HH CLint) was measured by incubating the cells with the test compound at 37 °C for 2 h. An aliquot of the mixture was taken at typically nine defined time points, and the metabolic reaction was stopped by adding ACN. The samples were centrifuged, and the supernatant was analyzed via LC-MS/MS. Intrinsic clearance (CLint) was calculated from the disappearance rate of the parent compound. ,

human hepatocytes [2] = test: Metabolite identification in human hepatocyte incubations; assay type: in vitro ADME; settings: 4 μM
Method: Cryopreserved, pooled primary human, dog, and rat hepatocytes were obtained from BioIVT (previously Celsis IVT). L-15 Leibovitz buffer was placed in a water bath to reach 37 °C. Cryopreserved hepatocytes were transferred from a −150 °C freezer on dry ice and immediately immersed in a preheated water bath kept at 37 °C for thawing. When only a small ice crystal could be seen, the content was emptied into a 50 mL falcon tube filled with warm buffer (maximum four vials/falcon tube). The suspension was centrifuged at room temperature for 3 min at 50 g. The supernatant was removed, the pellet was resuspended in a small volume of buffer, and the falcon tube was refilled with buffer, followed by another centrifugation to wash away any remaining storage buffer. Thereafter, the supernatant was removed, and the pellet was dissolved in a small volume of buffer and diluted to a concentration of about 3–5 million cells/mL. After counting the cells using a Casy cell counter, the suspension was diluted to 1 million viable cells/mL and kept at room temperature until use. The viability cutoff was 80%.
An aliquot of 245 μL of hepatocyte suspension was added to a round-bottomed 96-deep-well plate using a manual multipipette. The deep-well plate was preincubated for 15 min at 37 °C and 13 Hz. Substrate solutions of the assay compounds were prepared by the robot in a 96-well plate as follows: 4 μL of 10 mM DMSO stock solution, followed by the addition of 96 μL of ACN:water (1:1, v:v) and mixing by shaking. 50 μL from each well were transferred to and combined in a new plate, resulting in 100 μL per well and a dilution of 1:1.
The reaction was started by the addition of 5 μL of 200 μM substrate solution to the preheated hepatocyte suspension, resulting in a final substrate concentration of 4 μM (0.04% DMSO, <0.5% ACN). The incubation was continued at 37 °C and 13 Hz. At each time point (0, 40, and 120 min), a 50 μL sample was taken out and quenched in 200 μL of cold ACN:methanol (1:1, v:v), and the stopped plates were centrifuged for 20 min (set at 4 °C and 4000 g). The supernatant was diluted by taking 50 μL and mixing it with 100 μL of water. Incubations of the positive controls, albendazole and dextromethorphan, were performed in parallel as described above.
Structural characterization of metabolites and metabolite profiling were performed using the Waters Acquity ultraperformance liquid chromatography (UPLC) system fitted to a Waters High-Resolution Mass Spectrometer (MS) (Xevo G2-S, Synapt G2-Si, or a Synapt XS MS). The Waters MS systems, equipped with an electrospray ionization (ESI) source, were operated in positive-ion sensitivity mode over a mass range m/z 50–1200 and in negative-ion sensitivity mode over a mass range m/z of 50–1200.
The reversed-phase gradient elution was performed on an Acquity U(H)-PLC BEH C18 column (2.1 × 100 mm, 1.7 μm, Waters) set at 45 °C. The mobile phases consisted of 0.1% FA in water (A) and ACN (B). […] The injection volume was 2 μL. The MS settings were optimized for the respective MS instrument. […] A scan time of 0.1 s was used, and data were acquired in centroid mode. Collision energy was set to “off” for the low-energy function, whereas in the high-energy MSe functions, the collision energies were typically ramped from 15 to 35 V in the trap cell, with constant collision energies of 20 V in their transfer cells. Cone voltage was set to 25 V for both low- and high-energy functions. For dedicated MS/MS, the m/z of the molecular ion was selected in the quadrupole, and the mass range for fragmentation analysis was typically set between 50 and 1200. The collision energies were either the same as those stated above for MSe data generation or optimized for a specific metabolite.

physchem [3] = settings: pH 7.4
Method: (§1) LogD was measured using the traditional shake-flask method, with up to ten compounds pooled together. The compounds were dissolved in 10 mM sodium phosphate buffer adjusted to pH 7.4 and an octanol phase (both phases were mixed for 2 h at room temperature). The concentrations in both phases were analyzed by liquid chromatography and quantitative tandem mass spectrometry (LC-MS/MS), and distribution coefficients were determined.

physchem [4] = settings: 25 °C, pH 7.4, aqueous buffer, thermodynamic from solid
Method: (§2) Solubility was measured as the thermodynamic solubility using a shake-flask approach. Here, DMSO was evaporated from the compound stock solution as the first step. The “dried” compounds were then placed into 10 mM sodium phosphate buffer, adjusted to pH 7.4, and equilibrated at 25 °C for 24 h. The samples were centrifuged, and the solution was analyzed by LC-MS/MS to determine the amount of compound in solution.

[5] = Thermodynamic solubility, shake-flask; settings: 10 mM sodium phosphate buffer, 25 °C, pH 7.4, aqueous buffer, thermodynamic from solid
Method: as §2

[6] = LogD, shake-flask method (octanol / buffer pH 7.4); settings: octanol/10 mM sodium phosphate buffer
Method: as §1

Structure (SMILES) | HH CLint (human hepatocytes [1]) [μL/min/1E6] | Metabolites / metabolic pathways identified (human hepatocytes [2]) | logD (physchem [3]) | solubility (physchem [4]) [µM] | solubility at 24 h [5] [µM] | logD at 2 h [6]
COc1cc(NC(=O)C2CCCCC2C(=O)c2ccc(-c3cc[nH]n3)cc2)ncn1 (stereo not shown) [Cmpd 17, COc1cc(NC(=O)[C@@H]2CCCC[C@H]2C(=O)c2ccc(-c3cc[nH]n3)cc2)ncn1] | 22 | ketone reduction, aliphatic hydroxylations, N-glucuronidation, amide hydrolysis, and combinations thereof | 3.9 | 22 (≈ 8.92 µg/mL) | – | –
Cn1ncc(NC(=O)C2CCCCC2C(=O)c2ccc(-c3cc[nH]n3)cc2)c1C(N)=O (stereo not shown) [Cmpd 18, Cn1ncc(NC(=O)[C@@H]2CCCC[C@H]2C(=O)c2ccc(-c3cc[nH]n3)cc2)c1C(N)=O] | 4 | the only metabolite identified was the alcohol formed after the reduction of a ketone | – | – | 564 (≈ 237 µg/mL) | 2
Cn1ncc(NC(=O)C2CCCCC2C(=O)c2ccc(-c3cc[nH]n3)cc2)c1C(F)(F)F (stereo not shown) [Cmpd 25, Cn1ncc(NC(=O)[C@@H]2CCCC[C@H]2C(=O)c2ccc(-c3cc[nH]n3)cc2)c1C(F)(F)F] | 7 | amide hydrolysis was not detected | 3.6 | 80 (≈ 35.6 µg/mL) | – | –
Cn1cc(NC(=O)C2CCCCC2C(=O)c2ccc(-c3cc[nH]n3)cc2)c(C(F)F)n1 (stereo not shown) [Cmpd 27, Cn1cc(NC(=O)[C@@H]2CCCC[C@H]2C(=O)c2ccc(-c3cc[nH]n3)cc2)c(C(F)F)n1] | 9 | amide hydrolysis was not detected | – | – | 99 (≈ 42.3 µg/mL) | 3
